We go through four compounds from US20170189429A1, “Treating Arrhythmia with Mitochondrial-Targeted Antioxidants” (Rhode Island Hospital, priority 2014, published 2017).

Assay [1] deals with sodium channel current (INa). The assay is described as follows: Patch clamp peak INa in adult mouse cardiomyocytes treated with antimycin A. The class given is cell-based. As for the experimental part:
FIG. 9A is a bar graph showing that MitoQ restored INa that was decreased by antimycin A. The peak INa at −30 mV in adult mouse cardiomyocytes was decreased in antimycin A (5-10 μM) compared with SCNSA alone. Treatment using MitoQ at 10 nM with a 1-2 hour preincubation time restored INa. The SCNSA group is the untreated group. For patch clamp, MitoQ and antimycin A were also applied to the patch clamp bath solution during the entire time of patching, respectively or together. INa was measured at room temperature. Data shown in FIGS. 9A and 9B were obtained from 3 different mice, and 16-28 cells were used on average in each group.
In addition to MitoTEMP and NAD^+, another mitochondrial-targeted antioxidant, MitoQ, was tested. […] is an antibiotic that induces apoptosis and inhibits the mitochondrial electron transport chain, thereby inducing oxidative stress and generating reactive oxygen species. Because antimycin A is known to generate ROS (for example, increasing superoxide formation), it decreases the sodium channel current (INa). Additionally, antiomycin A causes damage to mitochondrial DNA, lipids, and proteins in cells treated with the antibiotic. […] Mitochondrial ROS production in response to increased antimycin A levels was monitored by MitoSox Red with SCNSA cells and myocytes (FIGS. 9A and 9B). […]

For another assay, the system named is ROS. In words: ROS density by MitoSox dye in adult mouse cardiomyocytes treated with antimycin A. The conditions noted are these: MitoQ 1-2 hours pretreatment, 10 nM. The class given is cell-based. How it is done: FIG. 9B is a bar graph showing that Mito Q decreased ROS that was generated by antimycin A. ROS density in adult mouse cardiomyocytes was measured using MitoSox dye. Adult mouse cardiomyocytes were isolated, and MitoQ was applied for 1-2 hours pretreatment.
In addition to MitoTEMP and NAD^+, another mitochondrial-targeted antioxidant, MitoQ, was tested. […] is an antibiotic that induces apoptosis and inhibits the mitochondrial electron transport chain, thereby inducing oxidative stress and generating reactive oxygen species. Because antimycin A is known to generate ROS (for example, increasing superoxide formation), it decreases the sodium channel current (INa). Additionally, antiomycin A causes damage to mitochondrial DNA, lipids, and proteins in cells treated with the antibiotic. MitoSOX Red is a fluorescent mitochondrial probe used to measure ROS production. Mitochondrial ROS production in response to increased antimycin A levels was monitored by MitoSox Red with SCNSA cells and myocytes (FIGS. 9A and 9B).
Isolated adult mouse cardiomyocytes were pretreated with MitoQ.

Assay [2] relates to SCN5A: sodium channel, voltage gated type V alpha subunit. The assay is described as follows: INa in SCN5A cells treated with NADH. The class given is cell-based. As for the experimental part: FIG. 1A is a graph showing a series of sodium current traces measuring a INa reduction induced by NADH (nicotinamide adenine dinucleotide) (SCN5A+100 μM [NADH]) compared to normal INa (SCN5A), which can be restored by mitoTEMPO (SCN5A+100 μM [NADH]+5 μM [mitoTEMPO]). SCN5A: sodium channel, voltage gated type V alpha subunit
FIG. 1B is a bar graph showing INa reduction induced by NADH (SCN5A+100 μM [NADH]) compared to normal INa (SCN5A), which can be restored by mitoTEMPO (SCN5A+100 μM [NADH]+5 μM [mitoTEMPO]), which is also compared to mitoTEMPO (5 μM [mitoTEMPO]).
The SCNSA group is the untreated cells group, and the others were treated with 100 μmol/L NADH in the absence or presence of NAD from 50 to 1000 μmol/L.
The SCN5A group is the untreated cells group, and the others were treated with 100 μmol/L NADH in the absence or presence of NAD from 50 to 1000 μmol/L.

For assay [3], the system named is mitochondrial ROS. In words: Mitochondrial ROS by MitoSox Red confocal microscopy in PL-treated cells and DOCA myocytes. The class given is cell-based, mouse. As for the experimental part: FIG. 6A is a photo showing representative confocal microscopy images of myocytes of 3 groups. Scale bar, 10 μm. Mitochondrial ROS production in response to intracellular NADH was monitored by MitoSox Red with SCNSA cells and myocytes. The control groups were untreated, the pyruvate and lactate (PL) groups were treated with 1 and 10 mmol/L PL buffer, respectively, for 10 minutes, and the NAD-PL groups were incubated with 500 μmol/L NAD^+ for ˜6 hours and then treated with PL buffer for 10 minutes.
FIG. 6C is a photo showing that mitochondrial ROS levels were increased in DOCA (deoxycorticosterone) myopathic mice and reduced by NAD treatment (500 μmol/L). Representative confocal microscopy images of mitochondrial ROS levels were obtained with treatment of myocytes monitored with MitoTracker Green and MitoSox Red. The white scale bar is 20 μm. […]
Mitochondrial ROS production in response to intracellular NADH was monitored by MitoSox Red with SCNSA cells and myocytes (FIGS. 6A and 6B). […]
Mitochondrial ROS levels were increased in DOCA myopathic mice and reduced by NAD^+ treatment (500 μmol/L) (FIG. 6C. Representative confocal microscopy images of mitochondrial ROS levels were obtained with treatment of myocytes monitored with MitoTracker Green and MitoSox Red. The white scale bar is 20 μm. The extremely red cells are dying myocytes that have very high levels of ROS.

The test system of a further assay is cardiac INa. The assay is described as follows: Peak INa of DOCA mouse cardiomyocytes treated with NAD+. The class given is cell-based. Particulars: 500 μmol/L. An excerpt: NAD^+ restored INa decreased by mitoROS in PL-treated cells and in DOCA myocytes.
Assay [4] deals with mitochondrial ROS. The assay is described as follows: Mitochondrial ROS by flow cytometry in DOCA mice injected with NAD+. The class given is in vivo, mouse. Particulars: 100 mg/kg injected in the neck, P>0.05. How it is done:
Three to four animals and ˜10,000 myocytes from each animal were tested in each group in flow cytometry (FIG. 8A).

Another assay has as its system INa. The assay is described as follows: INa in cardiomyopathy of DOCA mice injected with NAD. The class given is in vivo, mouse. Particulars: injection 100 mg/kg. How it is done:
Reduced INa in cardiomyopathy of DOCA was corrected by injection of NAD (100 mg/kg), which had no effect on the sham group (FIG. 8B).

Assay [5] deals with cardiac Na+ channel (Nav1.5). In words: Whole-cell patch clamp recording of Na+ currents (INa) in cardiomyocytes isolated from MI mice treated with antioxidant. The class given is in vivo, mouse. How it is done: (§1) The following materials and methods were used to generate the data described herein. MI was induced in 12-week old C57BL/6 mice by coronary artery occlusion. Sham-operated mice were used as controls. Two weeks following surgery, MI mice were either given a mitochondria-targeted antioxidant, mitoTEMPO (0.7 mg/kg/day, intraperitoneally), or left untreated for two weeks. Cardiomyocytes isolated from the scar border of MI mice or from the left ventricular (LV) anterior wall of sham-operated mice were utilized for whole-cell patch clamp recording of Na^+currents (INa) and for measurements of mitochondrial reactive oxygen species (mitoROS) using flow cytometry. Nav1.5 protein expression levels were determined in the LV from MI and sham-operated mice. Echocardiography was performed 2- and 4-weeks following MI. Oxidized nicotinamide adenine dinculeotide used for experiments was purchased from Sigma-Aldrich, catalog number N1636 “β-Nicotinamide adenine dinucleotide hydrate, ≧99%, Synonyms: NAD^+, β-DPN, β-NAD, Coenzyme 1, Cozymase, DPN, Diphosphopyridine nucleotide, NAD, Nadide” and dissolved in water. MitoQ was used at 10 nM.
MI was induced in 12-week old C57BL/6 mice by coronary artery occlusion. Sham-operated mice were used as controls. […]
Whole cell INa were measured using the whole-cell patch clamp technique in voltage-clamp mode at room temperature.

In assay [6] the test system is mitochondrial reactive oxygen species (mitoROS). The assay is described as follows: mitoROS by flow cytometry (MitoSOX Red) in cardiomyocytes of treated MI mice. The class given is in vivo, mouse. How it is done: The following materials and methods were used to generate the data described herein. MI was induced in 12-week old C57BL/6 mice by coronary artery occlusion. Sham-operated mice were used as controls. Two weeks following surgery, MI mice were either given a mitochondria-targeted antioxidant, mitoTEMPO (0.7 mg/kg/day, intraperitoneally), or left untreated for two weeks. Cardiomyocytes isolated from the scar border of MI mice or from the left ventricular (LV) anterior wall of sham-operated mice were utilized for whole-cell patch clamp recording of Na^+currents (INa) and for measurements of mitochondrial reactive oxygen species (mitoROS) using flow cytometry. Nav1.5 protein expression levels were determined in the LV from MI and sham-operated mice. Echocardiography was performed 2- and 4-weeks following MI. […]
A BD LSR II (BD Biosciences) flow cytometer was used for high-throughput evaluation of mitoROS, mitochondrial volume, and cell survival. […] Separate suspensions were stained with propidium iodide (10 μg/mL) and evaluated at 617 nm to measure for cell integrity. Five thousand gated cells were recorded in each sample. […]

For another assay, the system named is Connexin 43. In words: Connexin 43 protein level expression in heart tissue of MI mice. The class given is in vivo, mouse. From the text:
FIG. 5A is a blot showing Connexin 43 protein level expressions and Glyceraldehyde 3-phosphate dehydrogenase (GAPDH) protein level expressions in heart tissue of Sham, MI mice and MI mice treated with mitoTEMPO (MI tx MT).
FIG. 5B is a bar graph showing Connexin 43/GAPDH protein expression in Sham, MI mice and MI mice treated with mitoTEMPO (MI tx MT).
MI was induced in 12-week old C57BL/6 mice by coronary artery occlusion. Sham-operated mice were used as controls. Two weeks after surgery, MI mice were either given a mitochondria-targeted antioxidant, mitoTEMPO (0.7 mg/kg/day, intraperitoneally), or left untreated for two weeks (Rutledge C A et al. J Am Coll Cardiol 2014; 63:928-934).

Assay [7] can be described thus: Echocardiography 2 and 4 weeks following MI. The class given is in vivo, mouse. The conditions noted are these: MI mice. How it is done: as §1
The mark [8] stands for this setting: rodents treated 0.7 mg/kg/day intraperitoneally after ischemic insult.

As for `COC1=C(OC)C(=O)C(CCCCCCCCCC[P+](c2ccccc2)(c2ccccc2)c2ccccc2)=C(C)C1=O` [MitoQ, 10-(6′-Ubiquinolyl)decylthriphenylphosphonium bromide], the “INa decreased by antimycin A, effect of antioxidant” value in [1] (10 nM, 1-2 hour preincubation, antimycin A 5-10 μM, peak INa at −30 mV, room temperature) was “restored INa”. Further, the entries for the “ROS (MitoSOX density) generated by antimycin A” value in the assay on ROS and in the assay on ROS (listed as Mito Q) were “elevated MitoSOX density” and “decreased ROS”, respectively.
With `NC(=O)c1ccc[n+]([C@@H]2O[C@H](COP(=O)([O-])OP(=O)(O)OC[C@H]3O[C@@H](n4cnc5c(N)ncnc54)[C@H](O)[C@@H]3O)[C@@H](O)[C@H]2O)c1` [NAD^+, β-Nicotinamide adenine dinucleotide hydrate], the “inhibition of NADH on cardiac INa, effect of extracellular NAD” value in assay [2] (100 μmol/L NADH, NAD from 50 to 1000 μmol/L) is “reversed the inhibition of NADH on cardiac INa in a dose-dependent manner”. Besides, the “mitochondrial ROS levels in DOCA myopathic mice myocytes” value in the assay with mitochondrial ROS [3] (500 μmol/L) is listed as “reduced”. Besides, in the assay on mitochondrial ROS [3] (500 μmol/L NAD+ for ~6 hours, then PL buffer 10 minutes), the “MitoROS level increased by PL” value is listed as “Decreased”. The “peak INa of DOCA mouse cardiomyocytes” value with cardiac INa is reported as “restored INa to the sham level”. Further, the “mitochondrial ROS” value in the assay with mitochondrial ROS [4] is 1.1±0.1 fold of sham. The “reduced INa in cardiomyopathy of DOCA” value in the assay with INa (DOCA mice) was “corrected”. Further, the “INa, effect on the sham group” value in the assay on INa (sham mice) was “no effect”.
With `CC1(C)CC(NC(=O)C[P+](c2ccccc2)(c2ccccc2)c2ccccc2)CC(C)(C)N1[O]` [mitoTEMPO, (2-(2,2,6,6-Tetramethylpiperidin-1-oxyl-4-ylamino)-2-oxoethyl)triphenylphosphonium chloride monohydrate], in assay [5] (MI mice, 0.7 mg/kg/day intraperitoneally for two weeks, isolated LV cardiomyocytes, sham −24.0±1.8, untreated MI −14.3±1.4), the “peak INa density” value was −19.4±0.8 pA/pF. Further, the “INa activity, effect in words” value in assay [5] (setting [8]) is listed as “statistically significant increase”. In assay [6] (MI mice, 0.7 mg/kg/day intraperitoneally for two weeks, scar border cardiomyocytes, untreated MI 1.5±0.2 fold), this compound yielded a mitoROS level of 1.2±0.2 fold. Further, the “mitochondrial ROS, effect in words” value in [6] (setting [8]) is listed as “statistically significant decrease”. The “effect on connexin 43 downregulation in MI” value with Connexin 43 (MI mice) was “no effect”. For the same compound, the “Connexin 43 level, of sham levels” value in the assay on Connexin 43 (treated MI mice, untreated MI 56%, P<0.01 vs sham, ns vs MI) turned out to be 41%. In assay [7], the “echocardiography parameters, untreated vs treated groups” value is “no significant differences”. In addition, the “INa reduced by NADH, effect of antioxidant” value in assay [2] (SCN5A + 100 μM NADH + 5 μM mitoTEMPO) is reported as “restored”.
In the case of antimycin A, the “peak INa at −30 mV, effect of antimycin A” value in [1] (5-10 μM, compared with SCN5A alone (untreated)) was “decreased”.
